# Results from patent publication US6914045B2, “Glycopeptide antibiotics” (Wyeth Holdings Corporation, priority 2001, dated 2005).
# Legend:
# Experiment in all cases: in vitro antibacterial evaluation, MIC by broth dilution
# Format in all cases: cell-based
# [1] = system: Enterococcus sp.; details: broth dilution, 18 hours at 35° C.
# Method in brief: (§1)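 MIC = lowest antibiotic concentration preventing visible growth; inoculum 5×10^5 CFU/mL; drug range 64-0.06 μg/mL; Muller-Hinton II […]; NCCLS M7-A2 guidance.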
# [2] = system: Escherichia coli; details: 18 hours at 35° C.
# Method in brief: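 Following National Committee for Clinical Laboratory Standards recommendations (M7-A2), susceptibility was measured by dilution in Muller-Hinton II […]. Bacteria were seeded at 5×10^5 CFU/mL against compound concentrations from 64 down to 0.06 μg/mL.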
# [3] = system: Staphylococcus sp.
# Method in brief: as §1
# [4] = system: Streptococcus sp.; details: broth dilution, 18 hours at 35° C.
# Method in brief: as §1
# [5] = Enterococcus faecalis (ATCC 29212)
# [6] = Enterococcus faecalis (GC 4553)
# [7] = Enterococcus faecalis (GC 4554)
# [8] = broth dilution, 18 hours at 35° C.
# [9] = broth dilution, 18 hours at 35° C.; strain GC 4546
# [10] = broth dilution, 18 hours at 35° C.; strain GC 4547
# [11] = broth dilution, 18 hours at 35° C.; strain GC 4548
# [12] = broth dilution, 18 hours at 35° C.; strain GC 4549
# [13] = broth dilution, 18 hours at 35° C.; strain GC 4551
# [14] = broth dilution, 18 hours at 35° C.; strain SMITH GC 4543
smiles,measurement,setting,value
"CC(C)CC(=O)OC1C(O)C(CO)OC(OC2C(CO)OC(Oc3ccc(CC4NC(=O)C(C(C)c5cccs5)NC(=O)CNC(=O)C(CO)NC(=O)C(C(O)C5CNC(=N)N5C5OC(CO)C(O)C(O)C5O)NC(=O)C(C(O)C5CNC(=N)N5)NC4=O)cc3)C(O)C2O)C1O (stereo not drawn) [Example 265b, Cyclo[3-(2-thienyl)-2-aminobutanoyl-O-[4-O-[3-O-(3-methylbutanoyl)hexopyranosyl]hexoipyranosyl]tyrosyl-3-(2-iminoimidazolidin-4-yl)seryl-3-(3-hexolpyranosyl-2-iminoimidazolidin-4-yl)serylserylglycyl]]",MIC Enterococcus avium (GC 4558),[1]; Enterococcus avium (GC 4558),64 µg/mL
same,MIC Enterococcus faecalis (ATCC 29212),[1]; [5],64 µg/mL
same,MIC Enterococcus faecalis (GC 4553),[1]; [6],64 µg/mL
same,MIC Enterococcus faecalis (GC 4554),[1]; [7],>64 µg/mL
same,MIC Enterococcus faecium (GC 2243),[1]; Enterococcus faecium (GC 2243),64 µg/mL
same,MIC Enterococcus faecium (GC 4556),[1]; Enterococcus faecium (GC 4556),64 µg/mL
same,MIC Enterococcus faecium (GC 4557),[1]; Enterococcus faecium (GC 4557),8 µg/mL
same,MIC Enterococcus faecalis (ATCC 29212),[1]; strain ATCC 29212,64 µg/mL
same,MIC Enterococcus faecalis (GC 2242),[1]; strain GC 2242,64 µg/mL
same,MIC Enterococcus faecium (GC 2243),[1]; strain GC 2243,64 µg/mL
same,MIC Enterococcus faecalis (GC 4552),[1]; strain GC 4552,64 µg/mL
same,MIC Enterococcus faecalis (GC 4553),[1]; strain GC 4553,64 µg/mL
same,MIC Enterococcus faecalis (GC 4554),[1]; strain GC 4554,>64 µg/mL
same,MIC Enterococcus faecium (GC 4556),[1]; strain GC 4556,64 µg/mL
same,MIC Enterococcus faecium (GC 4557),[1]; strain GC 4557,8 µg/mL
same,MIC Enterococcus avium (GC 4558),[1]; strain GC 4558,64 µg/mL
same,MIC Escherichia coli (ATCC 25922),[2]; Escherichia coli (ATCC 25922),>64 µg/mL
same,MIC Escherichia coli (GC 4559),[2]; Escherichia coli (GC 4559),64 µg/mL
same,MIC Escherichia coli (GC 4560),[2]; Escherichia coli (GC 4560),4 µg/mL
same,MIC Coagulase Negative Staphylococcus (GC 4547),[3]; [8],8 µg/mL
same,MIC Coagulase Negative Staphylococcus (GC 4548),[3]; [8],4 µg/mL
same,MIC Coagulase Negative Staphylococcus (GC 4549),[3]; [8],4 µg/mL
same,MIC Coagulase Negative Staphylococcus (GC 4551),[3]; [8],8 µg/mL
same,MIC Staphylococcus aureus (ATCC 29213),[3]; [8],16 µg/mL
same,MIC Staphylococcus aureus (GC 1131),[3]; [8],32 µg/mL
same,MIC Staphylococcus aureus (GC 4541),[3]; [8],8 µg/mL
same,MIC Staphylococcus aureus (GC 4542),[3]; [8],8 µg/mL
same,MIC Staphylococcus aureus (GC 4544),[3]; [8],8 µg/mL
same,MIC Staphylococcus aureus (GC 4545),[3]; [8],8 µg/mL
same,MIC Staphylococcus aureus-SMITH (GC 4543),[3]; [8],8 µg/mL
same,MIC Staphylococcus haemolyticus (GC 4546),[3]; [8],8 µg/mL
same,MIC Staphylococcus aureus (ATCC 29213),"[3]; broth dilution, 18 hours at 35° C.; strain ATCC 29213",16 µg/mL
same,MIC Staphylococcus aureus (GC 1131),"[3]; broth dilution, 18 hours at 35° C.; strain GC 1131",32 µg/mL
same,MIC Staphylococcus aureus (GC 4541),"[3]; broth dilution, 18 hours at 35° C.; strain GC 4541",8 µg/mL
same,MIC Staphylococcus aureus (GC 4542),"[3]; broth dilution, 18 hours at 35° C.; strain GC 4542",8 µg/mL
same,MIC Staphylococcus aureus (GC 4544),"[3]; broth dilution, 18 hours at 35° C.; strain GC 4544",8 µg/mL
same,MIC Staphylococcus aureus (GC 4545),"[3]; broth dilution, 18 hours at 35° C.; strain GC 4545",8 µg/mL
same,MIC Staphylococcus haemolyticus (GC 4546),[3]; [9],8 µg/mL
same,MIC Coagulase Negative Staphylococcus (GC 4547),[3]; [10],8 µg/mL
same,MIC Coagulase Negative Staphylococcus (GC 4548),[3]; [11],4 µg/mL
same,MIC Coagulase Negative Staphylococcus (GC 4549),[3]; [12],4 µg/mL
same,MIC Coagulase Negative Staphylococcus (GC 4551),[3]; [13],8 µg/mL
same,MIC Staphylococcus aureus-SMITH (GC 4543),[3]; [14],8 µg/mL
same,MIC Streptococcus agalactiae (GC 4564),[4]; strain GC 4564,8 µg/mL
same,MIC Streptococcus pyogenes (ID-3187),[4]; strain ID-3187,4 µg/mL
"CC(c1ccccc1)C1NC(=O)CNC(=O)C(CO)NC(=O)C(C(O)C2CNC(=N)N2C2OC(CO)C(O)C(O)C2O)NC(=O)C(C(O)C2CNC(=N)N2)NC(=O)C(Cc2ccc(OC3OC(COC(=O)OCc4ccccc4)C(OC4OC(CO)C(O)C(O)C4O)C(O)C3O)cc2)NC1=O (stereo not drawn) [Example 101, Cyclo[glycyl-β-methylphenylalanyl-O-[4-O-hexopyranosyl-6-O-[(phenylmethoxy)carbonyl]-hexopyranosyl]tyrosyl-3-(2-iminoimidazolidin-4-yl)seryl-3-(3-hexopyranosyl-2-iminoimidazolidin-4-yl)serylseryl]]",MIC Enterococcus avium (GC 4558),[1]; Enterococcus avium (GC 4558),32 µg/mL
same,MIC Enterococcus faecalis (ATCC 29212),[1]; [5],32 µg/mL
same,MIC Enterococcus faecalis (GC 2242),[1]; Enterococcus faecalis (GC 2242),16 µg/mL
same,MIC Enterococcus faecalis (GC 4552),[1]; Enterococcus faecalis (GC 4552),64 µg/mL
same,MIC Enterococcus faecalis (GC 4553),[1]; [6],32 µg/mL
same,MIC Enterococcus faecalis (GC 4554),[1]; [7],64 µg/mL
same,MIC Enterococcus faecium (GC 2243),[1]; Enterococcus faecium (GC 2243),32 µg/mL
same,MIC Enterococcus faecium (GC 4556),[1]; Enterococcus faecium (GC 4556),32 µg/mL
same,MIC Enterococcus faecium (GC 4557),[1]; Enterococcus faecium (GC 4557),2 µg/mL
same,MIC Enterococcus faecalis (ATCC 29212),[1]; strain ATCC 29212,32 µg/mL
same,MIC Enterococcus faecalis (GC 2242),[1]; strain GC 2242,16 µg/mL
same,MIC Enterococcus faecium (GC 2243),[1]; strain GC 2243,32 µg/mL
same,MIC Enterococcus faecalis (GC 4552),[1]; strain GC 4552,64 µg/mL
same,MIC Enterococcus faecalis (GC 4553),[1]; strain GC 4553,32 µg/mL
same,MIC Enterococcus faecalis (GC 4554),[1]; strain GC 4554,64 µg/mL
same,MIC Enterococcus faecium (GC 4556),[1]; strain GC 4556,32 µg/mL
same,MIC Enterococcus faecium (GC 4557),[1]; strain GC 4557,2 µg/mL
same,MIC Enterococcus avium (GC 4558),[1]; strain GC 4558,32 µg/mL
same,MIC Escherichia coli (ATCC 25922),[2]; strain ATCC 25922,>64 µg/mL
same,MIC Coagulase Negative Staphylococcus (GC 4547),[3]; [8],2 µg/mL
same,MIC Coagulase Negative Staphylococcus (GC 4548),[3]; [8],2 µg/mL
same,MIC Coagulase Negative Staphylococcus (GC 4549),[3]; [8],1 µg/mL
same,MIC Coagulase Negative Staphylococcus (GC 4551),[3]; [8],8 µg/mL
same,MIC Coagulase Negative Staphylococcus (ID-3941),[3]; [8],1 µg/mL
same,MIC Staphylococcus aureus (ATCC 29213),[3]; [8],4 µg/mL
same,MIC Staphylococcus aureus (GC 1131),[3]; [8],4 µg/mL
same,MIC Staphylococcus aureus (GC 4541),[3]; [8],4 µg/mL
same,MIC Staphylococcus aureus (GC 4542),[3]; [8],8 µg/mL
same,MIC Staphylococcus aureus (GC 4544),[3]; [8],8 µg/mL
same,MIC Staphylococcus aureus (GC 4545),[3]; [8],4 µg/mL
same,MIC Staphylococcus aureus-SMITH (GC 4543),[3]; [8],4 µg/mL
same,MIC Staphylococcus haemolyticus (GC 4546),[3]; [8],4 µg/mL
same,MIC Staphylococcus haemolyticus (GC 4546),[3]; [9],4 µg/mL
same,MIC Coagulase Negative Staphylococcus (GC 4547),[3]; [10],2 µg/mL
same,MIC Coagulase Negative Staphylococcus (GC 4548),[3]; [11],2 µg/mL
same,MIC Coagulase Negative Staphylococcus (GC 4549),[3]; [12],1 µg/mL
same,MIC Coagulase Negative Staphylococcus (GC 4551),[3]; [13],8 µg/mL
same,MIC Coagulase Negative Staphylococcus (ID-3941),"[3]; broth dilution, 18 hours at 35° C.; strain ID-3941",1 µg/mL
same,MIC Staphylococcus aureus-SMITH (GC 4543),[3]; [14],4 µg/mL
same,MIC Staphylococcus aureus (ATCC 29213),"[3]; strain ATCC 29213; broth dilution, 18 hours at 35° C.",4 µg/mL
same,MIC Staphylococcus aureus (GC 1131),"[3]; strain GC 1131; broth dilution, 18 hours at 35° C.",4 µg/mL
same,MIC Staphylococcus aureus (GC 4541),"[3]; strain GC 4541; broth dilution, 18 hours at 35° C.",4 µg/mL
same,MIC Staphylococcus aureus (GC 4542),"[3]; strain GC 4542; broth dilution, 18 hours at 35° C.",8 µg/mL
same,MIC Staphylococcus aureus (GC 4544),"[3]; strain GC 4544; broth dilution, 18 hours at 35° C.",8 µg/mL
same,MIC Staphylococcus aureus (GC 4545),"[3]; strain GC 4545; broth dilution, 18 hours at 35° C.",4 µg/mL
same,MIC Streptococcus agalactiae (GC 4564),[4]; Streptococcus agalactiae (GC 4564),2 µg/mL
same,MIC Streptococcus pneumoniae (GC 4565),[4]; Streptococcus pneumoniae (GC 4565),<0.5 µg/mL
same,MIC Streptococcus pyogenes (ID-3187),[4]; Streptococcus pyogenes (ID-3187),2 µg/mL
same,MIC Streptococcus agalactiae (GC 4564),[4]; strain GC 4564,2 µg/mL
same,MIC Streptococcus pneumoniae (GC 4565),[4]; strain GC 4565,<0.5 µg/mL
same,MIC Streptococcus pyogenes (ID-3187),[4]; strain ID-3187,2 µg/mL
